# From PMC11943913, “Peptides from Harpadon nehereus Bone Ameliorate Sodium Palmitate-Induced HepG2 Lipotoxicity by Regulating Oxidative Stress and Lipid Metabolism” (Marine Drugs, 2025)
# Entries after “also recorded” stand apart in the source; their conditions may differ.
# Columns and labels:
# HepG2 cells [1] = assay: CCK-8 proliferation of HepG2 with PANa; type: cell-based; conditions: 1000 μM PANa, 24 h, CCK-8, p < 0.0001, 100% at 0 μM PANa
# Method: After incubation, different concentrations (250, 500, 750, 1000 μmol/L) of PANa were added and treated for 24 h. The cell proliferation rates were measured according to the CCK-8 assay instructions.
# HepG2 cells [2] = assay: Observation of cell morphology; type: cell-based; conditions: 350 µM PANa 24 h, inverted microscope, 200×
# Method: Cells grown in culture flasks underwent digestion to create a single-cell suspension that was then diluted with fresh medium before being transferred into six-well plates at a final concentration of 4 × 10^5/well (2 mL/well). Peptides at concentrations of 100 μM were introduced prior to adding PANa for a 4 h incubation. Following another 24 h culture period, cells were examined and photographed using an inverted microscope.
# catalase (CAT) = assay: Catalase (CAT) activity in HepG2; type: cell-based
# Method: (§1) After incubation, cells were treated with 100 μM of peptides for 4 h. After removing the media, PANa was added for 24 h of incubation. The levels of catalase (CAT), superoxide dismutase (SOD), glutathione peroxidase (GSH-Px), malondialdehyde (MDA), triacylglycerol (TG), total cholesterol (TCHO), low-density lipoprotein cholesterol (LDL-C), and high-density lipoprotein cholesterol (HDL-C) in the supernatant were determined according to the kit instructions.
# [3] = tested on: glutathione peroxidase (GSH-Px); assay: Glutathione peroxidase (GSH-Px) activity in HepG2; type: cell-based
# Method: as §1
# malondialdehyde (MDA) = assay: Malondialdehyde (MDA) level in HepG2; type: cell-based
# Method: as §1
# Nrf2 = assay: Western blot Nrf2; type: cell-based; conditions: HepG2, Western blot
# Method: (§2) After treatment, cells were washed with pre-chilled PBS and lysed with ice-cold lysis buffer for 30 min. The supernatant was collected after centrifugation at 12,000× g for 10 min and stored at −80 °C. Protein concentration was determined using a BCA protein assay kit. Equal amounts of protein (20–40 µg) were subjected to 10% sodium dodecyl sulfate-polyacrylamide gel electrophoresis (SDS-PAGE) and transferred to PVDF membranes (Polyvinylidene Fluoride, Merck, Darmstadt, Germany). Non-specific binding sites were blocked with 5% bovine serum albumin (BSA) solution at room temperature for 1 h, followed by incubation with the primary antibody at 4 °C overnight. After washing with TBST (3 times, 10 min/time), the membrane was incubated with the secondary antibody at room temperature for 1 h. Following further washing with TBST (3 times, 10 min/time), antibody signals were detected using a Western blot development system. The dilution ratios for the internal reference protein, vascular endothelial injury-related proteins, and oxidative stress-related pathway proteins were prepared according to the manufacturer’s instructions.
# HO-1 = assay: Western blot HO-1; type: cell-based; conditions: HepG2, Western blot
# Method: as §2
# NQO1 = assay: Western blot NQO1; type: cell-based; conditions: HepG2, Western blot
# Method: as §2
# HepG2 cells [4] = assay: Oil Red O staining (fat accumulation); type: cell-based; conditions: 200×
# Method: After incubation, the supernatants were discarded, and 2 mL of Oil Red O stationary solution was added to each well for 20–30 min. The stationary solution was subsequently washed away with 60% isopropyl alcohol. A freshly prepared Oil Red O staining solution was then applied for immersion dyeing lasting 10–20 min. After removing the staining solution with water, a Mayer hematoxylin staining solution was added for counterstaining the nucleus for 1–2 min before being discarded. An Oil Red O buffer solution was applied for 1 min and then discarded. […] The emission wavelength of fluorescence detection was 600 nm.
# triacylglycerol (TG) = assay: Triacylglycerol (TG) level in HepG2; type: cell-based
# Method: as §1
# total cholesterol (TCHO) = assay: Total cholesterol (TCHO) level in HepG2; type: cell-based
# Method: as §1
# [5] = tested on: low-density lipoprotein cholesterol (LDL-C); assay: LDL-C level in HepG2; type: cell-based
# Method: as §1
# [6] = tested on: high-density lipoprotein cholesterol (HDL-C); assay: HDL-C level in HepG2; type: cell-based
# Method: as §1
# [7] = tested on: fatty acid synthase (FASN); assay: Western blot FASN; type: cell-based; conditions: HepG2, Western blot
# Method: as §2
# [8] = tested on: phosphorylated ACC1 (p-ACC1); assay: Western blot p-ACC1; type: cell-based; conditions: HepG2, Western blot
# Method: as §2
# [9] = tested on: Carnitine palmitoyl transferase 1 (CPT1); assay: Western blot CPT1; type: cell-based; conditions: HepG2, Western blot
# Method: as §2
# [10] = tested on: adipose triglyceride lipase (ATGL); assay: Western blot ATGL; type: cell-based; conditions: HepG2, Western blot
# Method: as §2
# p-AMPKα = assay: Western blot p-AMPKα; type: cell-based; conditions: 350 µM PANa 24 h, HepG2, Western blot
# Method: as §2
# HepG2 cells [11] = assay: CCK-8 proliferation of HepG2 with peptide alone; type: cell-based; conditions: concentrations below 200 µM, 24 h, CCK-8, n = 3
# Method: HepG2 cells were cultured in DMEM supplemented with penicillin at a concentration of 100 U/mL, streptomycin at 100 μg/mL, and fetal bovine serum at a volume ratio of 10% under conditions of 37 °C and 5% CO2. A total of 2 ×10^4 cells per well were seeded into a 96-well plate for overnight culture. The upper layer of medium was carefully aspirated, and 200 μL of different concentrations of oligopeptide solution (50 μM, 100 μM, 200 μM) prepared with cell complete medium was added to each well. Twenty-four hours later, the proliferation rate of the cells was measured according to the instructions of the CCK-8 kit, and the appropriate concentration of oligopeptide was screened out.
# HepG2 cells [12] = assay: Cell viability of PANa-induced HepG2 (CCK-8); type: cell-based; conditions: 100 μM peptide 4 h, then 350 µM PANa 24 h, **** p < 0.0001 vs PANa group
# Method: A total of 2 × 10^4 cells/well were inoculated in 96-well plates for culture at 37 °C and 5% CO2. Following this period, the cells received treatment with 200 μL medium containing 100 μM LR-7, KA-8, or PG-7 for 4 h before adding 350 μM PANa to each well. After incubation for an additional 24 h, the cell proliferation rates were assessed using the CCK-8 assay protocols.
# [13] = tested on: superoxide dismutase (SOD); assay: Superoxide dismutase (SOD) activity in HepG2; type: cell-based; conditions: 100 μM peptide 4 h, then 350 µM PANa 24 h
# Method: as §1
# HepG2 = assay: Lipid levels in HepG2 (TG, TCHO, LDL-C, HDL-C) overall; type: cell-based; conditions: 100 μM peptide 4 h, then 350 µM PANa 24 h
# Method: as §1
# [14] = tested on: proteins associated with lipid metabolism; assay: Western blot, proteins associated with lipid metabolism overall; type: cell-based; conditions: 100 μM peptide 4 h, then 350 µM PANa 24 h, HepG2, Western blot
# Method: as §2
# pancreatic lipase = assay: Pancreatic lipase activity inhibition; type: biochemical; conditions: compared with orlistat (positive control); 4-nitrophenyl palmitate substrate, lipase 1.2 mg/mL, peptide 100 μM, Tris-HCl pH 8.0, 37 °C, absorbance 405 nm, three parallel wells
# Method: A working substrate solution consisting of 4-nitrophenyl palmitate dissolved in sodium acetate solution (containing 1% Triton-X 100, 100 mL, 5 mM, pH 5.0) was prepared. Enzyme powder was dissolved in Tris-HCl buffer (pH 8.0, 37 °C). This mixture was incubated at 4 °C for 2 h before centrifugation at 5000 r/min for 5 min, yielding the supernatant used to prepare a pancreatic lipase solution of 1.2 mg/mL. Orlistat at a concentration of 1 mg/mL in Tris-HCl buffer (pH 8.0; 37 °C) was prepared alongside DMSO to reach a concentration of 350 μg/mL peptide solution. The peptide solution of 100 μM was prepared with Tris-HCl buffer (pH = 8.0, 37 °C). The absorbance was measured at 405 nm, and the inhibition rate was measured in parallel with three holes due to the methodology of Franco et al..
# hypertensive mice = conditions: earlier work, ref [22]; cited from earlier work
# Source text: Harpadon nehereus, a nutrient-rich marine species indigenous to the Indo-Pacific region, remains underexploited despite its significant collagen content (18–22% wet weight). Harpadon nehereus serves as an economical source that is rich in protein and trace elements. Its proteins and derived peptides offer numerous health benefits including immune enhancement, blood pressure reduction, cardiovascular protection, and inflammation mitigation. In prior research, we successfully isolated three novel peptides LALFVPR (LR-7), KLHDEEVA (KA-8), and PSRILYG (PG-7) from the enzymatic hydrol ...
# [15] = 350 µM PANa 24 h, HepG2, p < 0.001
# [16] = 350 µM PANa 24 h, HepG2, p < 0.0001
# [17] = 100 μM peptide 4 h, then 350 µM PANa 24 h, HepG2
# [18] = 100 μM peptide 4 h, then 350 µM PANa 24 h, HepG2, p < 0.0001
# [19] = 100 μM peptide 4 h, then 350 µM PANa 24 h
# [20] = 100 μM peptide 4 h, then 350 µM PANa 24 h, vs PANa group, p < 0.0001
# [21] = 100 μM peptide 4 h, then 350 µM PANa 24 h, vs PANa group
compound,measurement,setting,value
"CCCCCCCCCCCCCCCC(=O)[O-].[Na+] [PANa, Sodium palmitate]",cell viability,HepG2 cells [1],33.3%
same,"cell morphology, PANa group",HepG2 cells [2],"appeared loose, with a marked decrease in cell count and showed signs of apoptosis"
same,decrease in CAT activity vs Con group,catalase (CAT); [15],more than 20%
same,decrease in GSH-Px activity vs Con group,[3]; [15],more than 20%
same,increase in MDA level vs Con group,malondialdehyde (MDA); [16],105%
same,"Nrf2 protein expression, PANa vs Con group",Nrf2; 350 µM PANa 24 h,significant reduction
same,"HO-1 protein expression, PANa vs Con group",HO-1; 350 µM PANa 24 h,significant reduction
same,"NQO1 protein expression, PANa vs Con group",NQO1; 350 µM PANa 24 h,significant reduction
same,"fat droplet formation and accumulation, PANa vs Con group",HepG2 cells [4]; 350 µM PANa 24 h,evident rise in fat droplet formation and accumulation
same,increase in TG level vs Con group,triacylglycerol (TG); [16],124.1%
same,increase in TCHO level vs Con group,total cholesterol (TCHO); [16],48.4%
same,increase in LDL-C level vs Con group,[5]; [16],58.3%
same,decrease in HDL-C level vs Con group,[6]; [15],51.7%
same,"FASN expression, PANa vs Con group",[7]; 350 µM PANa 24 h,notable increase in FASN expression
same,"p-ACC1 level, PANa vs Con group","[8]; 350 µM PANa 24 h, p < 0.01",significantly reduced
same,"CPT1 expression, PANa vs Con group","[9]; 350 µM PANa 24 h, p < 0.05",markedly diminished
same,"ATGL expression, PANa vs Con group","[10]; 350 µM PANa 24 h, p < 0.05",markedly diminished
same,"phosphorylation of AMPKα, PANa group",p-AMPKα,attenuate the phosphorylation of AMPKα
"LALFVPR [LR-7, peptide from Harpadon nehereus bone collagen enzymatic hydrolysates]",effect on apoptosis of HepG2 cells,HepG2 cells [11],no effect on the apoptosis of HepG2 cells
same,cell viability of PANa-exposed HepG2,HepG2 cells [12],notably enhanced the cell viability
same,"CAT activity, reversal of PANa-induced reduction",catalase (CAT); [17],effectively reversed the reduction
same,increase in CAT activity vs PANa group,catalase (CAT); [18],over 100%
same,"SOD activity, reversal of PANa-induced reduction",[13],effectively reversed the reduction
same,"GSH-Px activity, reversal of PANa-induced reduction",[3]; [17],effectively reversed the reduction
same,increase in GSH-Px activity vs PANa group,[3]; [18],over 100%
same,MDA level,malondialdehyde (MDA); [17],decreased to values similar to those observed in the Con group; also recorded: significantly decreased the MDA levels
same,Nrf2 protein level,Nrf2; [19],significant increases in the levels
same,HO-1 protein level,HO-1; [19],significant increases in the levels
same,increase in HO-1 level,HO-1; [20],131.7%
same,NQO1 protein level,NQO1; [19],significant increases in the levels
same,increase in NQO1 level,NQO1; [20],120%
same,fat accumulation relative to PANa group,HepG2 cells [4]; [19],most significant reduction in fat accumulation
same,"TG, effect on PANa-induced increase",triacylglycerol (TG); [17],notably reversed the PANa-induced increases
same,"TCHO, effect on PANa-induced increase",total cholesterol (TCHO); [17],notably reversed the PANa-induced increases
same,"LDL-C, effect on PANa-induced increase",[5]; [17],notably reversed the PANa-induced increases
same,"HDL-C, effect on PANa-induced decrease",[6]; [17],notably reversed
same,"lipid-lowering impact, ranking among the three peptides",HepG2,the most effective lipid-lowering impact
same,FASN expression vs PANa group,[7]; [19],FASN expression decreased
same,reduction in FASN level,[7]; [21],59.6%
same,p-ACC1 level vs PANa group,[8]; [19],p-ACC1 levels increased significantly
same,enhancement of p-ACC1,[8]; [21],293.7%
same,enhancement of CPT1 level,[9]; [20],134.7%
same,enhancement of ATGL level,[10]; [20],148.1%
same,"abnormal expression of proteins associated with lipid metabolism by PANa (FASN, ATGL, CPT1, p-AMPKα)",[14],significantly reversed
same,inhibition of pancreatic lipase activity,pancreatic lipase,superior inhibitory effects compared with orlistat
same,protection against cardiovascular injuries in hypertensive mice,hypertensive mice,protective qualities against cardiovascular injuries in hypertensive mice
